“And” between values parts separate entries of the source, which are not always exact repeats. Equal entries are not always repeated.
Key:
[1] = molecular target: T1, NQO1 (Homo sapiens, UniProt P15559); experiment: HPLC analysis of NQO1 catalyzed conversion of NIR-ASM; type: biochemical; set-up: purchased Sigma-Aldrich D1515; conditions: after 30 min of incubation
Text: Design, preparation, and characterization of the NIR-ASM fluorescent probe. Imaging agents emitting near-infrared fluorescence enable deeper penetration with low phototoxicity and high signal-to-background ratios due to minimal tissue auto-fluorescence, which is a prime requirement for in vivo imaging studies.^40,41 Accordingly, the inventors designed an NQO1 activatable near-infrared fluorescent probe (NIR-ASM) by attaching a trimethyl-lock QPA with (E)-2-(3-(4-aminostyryl)-5,5-dimethylcyclohex-2-en-1-ylidene)malononitrile (ASM) for molecular imaging of cancer cells in vivo (FIG. 9A). The fluorophore ASM was used in this study because of its strong NIR fluorescence signal with substantial Stokes shift (˜190 nm), to eliminate background interferences by avoiding reabsorption of emitted photons. […] NQO1 is a ubiquitous cytosolic two-electron reductase that catalyzes the reduction of quinone substrates in the presence of NADH. Upon interaction with NQO1 in the presence of NADH, QPA present in non-fluorescent NIR-ASM undergoes two-electron reduction to form an o-hydroxydihydrocinnamic acid derivative that undergoes rapid lactonization under physiological conditions to yield dihydrocoumarin, 6-hydroxy-4,4,5,7,8-pentamethylchroman-2-one (HPC) along with highly fluorescent ASM. […]

[2] = molecular target: T1, NQO1; experiment: Spectroscopic response of NQ-DCP to hNQO1; type: biochemical
Experimental: Spectroscopic Response of NQ-DCP to hNQO1. The spectroscopic response of the NQ-DCP probe to an hNQO1 enzyme in the presence of NADH was evaluated in a physiologically relevant buffer (0.1% BSA and 100 μM NADH containing PBS) to determine its ability to detect hNQO1. The absorption and fluorescence spectra of NQ-DCP in the absence and presence of hNQO1 are shown in FIGS. 2A and B. In the presence of hNQO1, although there was a distinct color change from yellow to red there was no difference found in the absorption maximum (425 nm) of NQ-DCP ([…]). Further, the reaction of NQ-DCP probe with hNQO1 produced a huge fluorescence enhancement at 565 nm with a large Stokes shift (140 nm) (FIG. 2B), which is favorable for sensitive detection and bioimaging analysis, because of a non-overlapping fluorescence emission. […] The inventors measured the fluorescence spectra of NQ-DCP (10 μm) following incubation with different concentrations of hNQO1 (0.12, 0.25, 0.5, 1.0, 1.5, 2.0, and 2.5 μg/mL (0.0038, 0.008, 0.016, 0.032, 0.048, 0.064, 0.08 μmol)) along with 100 μM NADH at pH 7.4 for 30 min. […] On incubation with hNQO1, the fluorescence intensity at 565 nm increased progressively with the NQO1 concentration and reached a maximum when the hNQO1 concentration was 2.5 μg/mL. The fluorescence intensity at 565 nm was linear with hNQO1 concentration, 0.25-2.0 μg/mL (FIG. 2D). The hNQO1 detection limit (LOD) of NQ-DCP was calculated to be as low as 0.095 μg/mL, based on the standard deviation of the response (Sy) and the slope of the calibration curve (S) according to the formula: LOD=3.3(Sy/S).
Spectroscopic Methods. For absorption and fluorescence measurements, all samples were first dissolved in 100% DMSO to obtain 10 mM stock solutions and then diluted to desired concentrations in PBS buffer containing 0.1% BSA for measurement. All spectroscopic measurements were performed under physiological conditions (pH 7.4 at room temperature. hNQO1 specific NQ-DCP activation was performed under philological conditions (PBS with 0.1% of BSA at 37° C.) in the presence of 100 μM NADH for 30 min. Time-dependent fluorescent intensity changes for different concentrations of […] in the presence of NQO1 (2.0 μg/mL) and 100 μM NADH were measured using Hitachi F-2500 Fluorescence spectrophotometer (λex=420 nm and λem=565 nm).

[3] = test system: normal (astrocytes) cells; experiment: Fluorescence microscopy of NQ-DCP in hNQO1 negative normal cells; type: cell-based; conditions: 10 μM, 60 min
Experimental: Visualization of Cancer Cells by Fluorescence Imaging of hNQO1. […] The cytotoxicity of NQ-DCP was initially evaluated in cultured brain tumor (DAOY, T98G, and U87MG) and normal (astrocytes) cells to assess its biocompatibility using the resazurin reduction assay. […] Cells were incubated with NQ-DCP (10 μM) for 60 min, washed with PBS and were imaged under a fluorescence microscope.
Cell Culture, Fluorescence Imaging, and Flow Cytometry Analysis. Brain tumor cells and astrocytes were grown in Dulbecco's modified Eagle's (DMEM) medium containing 10% Fetal Bovine Serum and 1% penicillin/streptomycin in a humidified atmosphere of 5% CO2 at 37° C. For fluorescence imaging, initially, cells were seeded into 6-well plate and cultured overnight in respective media at 37° C. Media was replaced with fresh medium containing 10 μM NQ-DCP and incubated at 37° C. for 60 min and then the medium was replaced with PBS and live cells were imaged using a fluorescence microscope. For inhibitor study, cells were pretreated with NQO1 inhibitor ES936 (100 nM) for 6 h before adding the NQ-DCP. For determining endogenous hNQO1 activity in cancer cells using flow cytometry, about 10×10^4 cells were incubated with 10 μM of NQ-DCP for 60 min and were analyzed using flow cytometry.

T1 sequence (P15559 whole entry): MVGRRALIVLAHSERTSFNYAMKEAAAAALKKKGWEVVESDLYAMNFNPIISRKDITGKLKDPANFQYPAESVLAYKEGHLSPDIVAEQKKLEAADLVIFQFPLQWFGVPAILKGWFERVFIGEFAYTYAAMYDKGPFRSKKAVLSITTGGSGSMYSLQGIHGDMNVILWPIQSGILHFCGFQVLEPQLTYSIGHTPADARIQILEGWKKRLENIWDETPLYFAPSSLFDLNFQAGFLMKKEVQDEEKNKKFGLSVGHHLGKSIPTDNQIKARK

conversion into ASM by NQO1 (HPLC) [1] | Stokes-Shift [2] | λabs/em [2] | hNQO1 concentration range in which fluorescence intensity at 565 nm was linear ([2]; 10 μM probe, 100 μM NADH, 30 min) [µg/mL] | hNQO1 detection limit (LOD) ([2]; 10 μM probe, 100 μM NADH, pH 7.4, 30 min, LOD=3.3(Sy/S)) [µg/mL] | stability in the absence of hNQO1 ([2]; PBS with 0.1% BSA, 100 μM NADH, pH 7.4, 30 min, no hNQO1) | Stokes shift ([2]; after reaction with hNQO1) | fluorescence enhancement (emission wavelength) ([2]; after reaction with hNQO1) [nm] | absorption maximum ([2]; no difference in the presence of hNQO1) [nm] | SMILES | fluorescence signal in normal cells [3]
nearly completely converted into ASM | – | – | – | – | – | – | – | – | CC1=C(C)C(=O)C(C(C)(C)CC(=O)Nc2ccc(/C=C/C3=CC(=C(C#N)C#N)CC(C)(C)C3)cc2)=C(C)C1=O [NIR-ASM, (E)-N-(4-(2-(3-(dicyanomethylene)-5,5-dimethylcyclohex-1-en-1-yl)vinyl)phenyl)-3-methyl-3-(2,4,5-trimethyl-3,6-dioxocyclohexa-1,4-dien-1-yl)butanamide] | –
– | 145 | 420/465 | 0.25 to 2.0 | 0.095 | highly stable | 145 nm and 140 nm | 565 | 425 | CC1=C(C)C(=O)C(C(C)(C)CC(=O)Oc2ccc(/C=C/C3=CC(=C(C#N)C#N)CC(C)(C)C3)cc2)=C(C)C1=O [NQ-DCP] | no signals were observed

Reference: patent US11957766B2, “HNQO1-activatable fluorescent probe for imaging cancer cells in-vitro and in-vivo” (Texas Tech University System, priority 2019, dated 2024)
